Measured values: article PMC9246773, “Assessing the Activity of Antimicrobial Peptides Against Common Marine Bacteria Located in Rotifer (Brachionus plicatilis) Cultures” (Probiotics and Antimicrobial Proteins, 2022)
No end group written: not given here.

Key:
Type in all cases: cell-based
Shewanella sp. [1] = conditions: 48 h
Experimental: (§1) A range of bacterial species with the potential to be transferred to developing fish larvae as pathogens or probiotics were selected for use in the study (Table 2). Bacterial isolates were stored at −80 °C and thawed, and 25 µL of the isolates was spread onto marine salt agar (MSA) media. All isolates were incubated at 25 °C for 18 h to reach mid-log growth phase. All isolates were sub-cultured and identified using mass spectrometry (MALDI-TOF) using the BioTyper and MBT 8468 library (Bruker Pty Ltd). The isolate Tenacibaculum discolor was plated on Anacker and Oradal’s marine (AOM) media, incubated for 48 h and identified using the aforementioned method. Bacterial isolates were suspended in sterile saline (0.75% NaCl w/v) to 0.5 McFarland standard. […] The bacterial isolates T. discolor and Pseudoalteromonas sp. require marine salts to grow and were not added to MHB (0‰). The isolate T. discolor requires low nutrients to grow, therefore, a separate MHB (25‰) was prepared at a diluted ratio of 1 part MHB and 7 parts artificial seawater (25‰).
(§2) The protocol was followed to determine the minimum inhibitory concentration (MIC) of the selected peptides. Two MIC assays were performed, firstly to determine whether each peptide precipitated in MHB and thereby required acetic acid adjustments (supplementary materials) and secondly, to determine the antimicrobial activity of each peptide in artificial seawater (25‰). Peptide stock solutions (1.3 mg mL^−1) were made by diluting the peptides in sterile deionised water. MHB was made with deionised water to reach a concentration of approaching 0‰ and artificial sea salts (Sigma-Aldrich® S9883) to reach a salinity of 25‰.
(§3) A broth microdilution protocol was followed to test whether the AMPs precipitated in MHB. The isolates T. discolor and Pseudoalteromonas were excluded from this assay because they required marine salts for growth. The peptides HHC10 and HHC36 previously required acetic acid adjustments according to [63] and were not trialled in this assay. To test if peptides required acetic acid, each peptide was diluted 1:2 in acetic acid (0.02% acetic acid w/v, containing 0.4% BSA) solution. In a 96-well polypropylene microtitre plates (Costar® 3879), 100 µL of this peptide stock was added to the first well for each bacterial isolate tested and serially diluted 2-fold with acetic acid (0.01% acetic acid w/v, containing 0.2% BSA). From each well, 10 µL of each peptide concentration was added to the corresponding wells of a new 96-well microtitre plate. From each of the bacterial suspensions in MHB (0‰), 90 µL was added to each well. […] From each of the bacterial suspensions in MHB (0‰), 50 µL was added to each well. All peptide concentrations ranged from 0.125 - 65µg mL^-1 and the bacterial suspension in each well was approximately 5 × 10^5 CFU mL^-1. Antimicrobial peptides that have an MIC value two or more dilutions higher in the assay with no acetic acid, compared to the assay with acetic acid, require acetic acid adjustments. The 96-well plates were incubated at 25 °C and read at 24 and 48 hours. The MIC was visually determined using a Sensititre™ Vizion™ Digital MIC Viewing System (Thermo Scientific™), and the lowest AMP concentration that had no bacterial growth was recorded as the MIC after 48 hours. Each bacterium was trialled in duplicate.

[2] = tested on: Vibrio harveyi (ATCC 35084); conditions: ATCC 35084, 48 h
Experimental: as §1, §2, §3

Vibrio rotiferianus [3] = conditions: 48 h
Experimental: as §1, §2, §3

[4] = tested on: Escherichia coli (ATCC 25922); conditions: ATCC 25922, 48 h
Experimental: as §1, §2, §3

Vibrio alginolyticus [5] = conditions: 48 h
Experimental: as §1, §2, §3

Vibrio harveyi [6] = conditions: 48 h
Experimental: as §1, §2, §3

Vibrio scophthalmi [7] = conditions: 48 h
Experimental: as §1, §2, §3

bacterial isolates [8] = conditions: 48 h
Experimental: as §1, §2
Once the acetic acid requirement for each peptide was determined (Table 3), the antimicrobial activity of each peptide was tested at a salinity of 0‰ and 25‰ for all bacterial isolates. A stock solution for peptides that required acetic acid was prepared by a 1:2 dilution in acetic acid (0.02% acetic acid w/v, containing 0.4% BSA) solution. In a 96-well polypropylene microtitre plates (Costar® 3879), 100 µL of this peptide stock was added to the first well for each bacterial isolate tested and serially diluted twofold with acetic acid (0.01% acetic acid w/v, containing 0.2% BSA). From each well, 10 µL of each peptide concentration was added to the corresponding wells of a new 96-well microtitre plate. From each of the bacterial suspensions (0‰), 90 µL was added to each well. […] Twofold serial dilutions were made with MHB (0‰). From each of the bacterial suspensions (0‰), 50 µL was added to each well. The same method was followed for testing peptides in MHB at 25‰. All peptide concentrations ranged from 0.125 to 65 µg mL^−1, and the bacterial suspension in each well was approximately 5 × 10^5 CFU mL^−1. […]

Shewanella sp. [9] = conditions: 48 h; remark: listed apart in the source
Experimental: as §1, §2
(§4) Once the acetic acid requirement for each peptide was determined (Table 3), the antimicrobial activity of each peptide was tested at a salinity of 0‰ and 25‰ for all bacterial isolates. A stock solution for peptides that required acetic acid was prepared by a 1:2 dilution in acetic acid (0.02% acetic acid w/v, containing 0.4% BSA) solution. In a 96-well polypropylene microtitre plates (Costar® 3879), 100 µL of this peptide stock was added to the first well for each bacterial isolate tested and serially diluted twofold with acetic acid (0.01% acetic acid w/v, containing 0.2% BSA). From each well, 10 µL of each peptide concentration was added to the corresponding wells of a new 96-well microtitre plate. From each of the bacterial suspensions (0‰), 90 µL was added to each well. […] Twofold serial dilutions were made with MHB (0‰). From each of the bacterial suspensions (0‰), 50 µL was added to each well. The same method was followed for testing peptides in MHB at 25‰. All peptide concentrations ranged from 0.125 to 65 µg mL^−1, and the bacterial suspension in each well was approximately 5 × 10^5 CFU mL^−1. The different salinities were used to compare any differences in antimicrobial activity in 0‰ and 25‰ water. […] Each bacterium was trialled in duplicate.

[10] = tested on: Vibrio harveyi (ATCC 35084); conditions: ATCC 35084, 48 h; remark: listed apart in the source
Experimental: as §1, §2, §4

Vibrio rotiferianus [11] = conditions: 48 h; remark: listed apart in the source
Experimental: as §1, §2, §4

Tenacibaculum discolor = conditions: 48 h
Experimental: as §1, §2, §4

[12] = tested on: Escherichia coli (ATCC 25922); conditions: ATCC 25922, 48 h; remark: listed apart in the source
Experimental: as §1, §2, §4

Vibrio alginolyticus [13] = conditions: 48 h; remark: listed apart in the source
Experimental: as §1, §2, §4

Vibrio harveyi [14] = conditions: 48 h; remark: listed apart in the source
Experimental: as §1, §2, §4

Pseudoalteromonas sp. = conditions: 48 h
Experimental: as §1, §2, §4

Vibrio scophthalmi [15] = conditions: 48 h; remark: listed apart in the source
Experimental: as §1, §2, §4

bacterial isolates [16] = conditions: 48 h; remark: listed apart in the source
Experimental: as §1, §2, §4

Row | Substance | MIC Shewanella sp., Acetic (Shewanella sp. [1]) | MIC Shewanella sp., No acetic (Shewanella sp. [1]) | MIC V. harveyi ATCC 35084, Acetic [2] | MIC V. harveyi ATCC 35084, No acetic [2] | MIC Shewanella sp., salinity 0‰ (Shewanella sp. [9]) | MIC Shewanella sp., salinity 25‰ (Shewanella sp. [9]) | MIC V. harveyi ATCC 35084, salinity 0‰ [10] | MIC V. harveyi ATCC 35084, salinity 25‰ [10] | MIC V. rotiferianus, salinity 0‰ (Vibrio rotiferianus [11]) | MIC V. rotiferianus, salinity 25‰ (Vibrio rotiferianus [11]) | MIC T. discolor, salinity 25‰ (Tenacibaculum discolor) | MIC E. coli ATCC 25922, salinity 0‰ [12] | MIC E. coli ATCC 25922, salinity 25‰ [12] | MIC V. alginolyticus, salinity 0‰ (Vibrio alginolyticus [13]) | MIC V. alginolyticus, salinity 25‰ (Vibrio alginolyticus [13]) | MIC V. harveyi, salinity 0‰ (Vibrio harveyi [14]) | MIC V. harveyi, salinity 25‰ (Vibrio harveyi [14]) | MIC Pseudoalteromonas sp., salinity 25‰ (Pseudoalteromonas sp.) | MIC V. scophthalmi, salinity 0‰ (Vibrio scophthalmi [15]) | MIC V. scophthalmi, salinity 25‰ (Vibrio scophthalmi [15]) | other results
1 | ILVRWIRWRIQW-NH2 [Peptide 3002] | 8.13 µg/mL | 4.06 µg/mL | 4.06 µg/mL | 2.03 µg/mL | 8.13 µg/mL | > 65 µg/mL | 8.13 µg/mL | > 65 µg/mL | 8.13 µg/mL | > 65 µg/mL | 32.5 µg/mL | 65 µg/mL | > 65 µg/mL | 8.13 µg/mL | > 65 µg/mL | 8.13 µg/mL | > 65 µg/mL | 65 µg/mL | 2.03 µg/mL | > 65 µg/mL | MIC V. rotiferianus, Acetic (Vibrio rotiferianus [3]): 4.06 µg/mL; MIC V. rotiferianus, No acetic (Vibrio rotiferianus [3]): 2.03 µg/mL; MIC E. coli ATCC 25922, Acetic [4]: 8.13 µg/mL; MIC E. coli ATCC 25922, No acetic [4]: 16.25 µg/mL; MIC V. alginolyticus, Acetic (Vibrio alginolyticus [5]): 4.06 µg/mL; MIC V. alginolyticus, No acetic (Vibrio alginolyticus [5]): 2.03 µg/mL; MIC V. harveyi, Acetic (Vibrio harveyi [6]): 4.06 µg/mL; MIC V. harveyi, No acetic (Vibrio harveyi [6]): 2.03 µg/mL; MIC V. scophthalmi, Acetic (Vibrio scophthalmi [7]): 1.02 µg/mL; MIC V. scophthalmi, No acetic (Vibrio scophthalmi [7]): 0.51 µg/mL; MIC in low salt conditions (over the bacterial isolates) (bacterial isolates [8]): 1 to 10 µg/mL
2 | KKWQLLIKWKLR-NH2 [Peptide 3008] | 8.13 µg/mL | 16.25 µg/mL | 16.25 µg/mL | 16.25 µg/mL | 16.25 µg/mL | 32.5 µg/mL | 8.13 µg/mL | > 65 µg/mL | 2.03 µg/mL | > 65 µg/mL | > 65 µg/mL | 8.13 µg/mL | > 65 µg/mL | 2.03 µg/mL | > 65 µg/mL | 4.06 µg/mL | > 65 µg/mL | > 65 µg/mL | < 0.13 µg/mL | 32.5 µg/mL | MIC V. rotiferianus, Acetic (Vibrio rotiferianus [3]): 2.03 µg/mL; MIC V. rotiferianus, No acetic (Vibrio rotiferianus [3]): 1.02 µg/mL; MIC E. coli ATCC 25922, Acetic [4]: > 65 µg/mL; MIC E. coli ATCC 25922, No acetic [4]: > 65 µg/mL; MIC V. alginolyticus, Acetic (Vibrio alginolyticus [5]): 1.02 µg/mL; MIC V. alginolyticus, No acetic (Vibrio alginolyticus [5]): 2.03 µg/mL; MIC V. harveyi, Acetic (Vibrio harveyi [6]): 4.06 µg/mL; MIC V. harveyi, No acetic (Vibrio harveyi [6]): 4.06 µg/mL; MIC V. scophthalmi, Acetic (Vibrio scophthalmi [7]): 0.51 µg/mL; MIC V. scophthalmi, No acetic (Vibrio scophthalmi [7]): 1.02 µg/mL; MIC in artificial seawater (25‰) (over the bacterial isolates) (bacterial isolates [16]): 32.5 µg/mL
3 | KRWWKWIRW-NH2 [HHC10] |  |  |  |  | 4.06 µg/mL | > 65 µg/mL | 4.06 µg/mL | > 65 µg/mL | 2.03 µg/mL | > 65 µg/mL | > 65 µg/mL | 4.06 µg/mL | > 65 µg/mL | 2.03 µg/mL | > 65 µg/mL | 8.13 µg/mL | > 65 µg/mL | > 65 µg/mL | 2.03 µg/mL | > 65 µg/mL | MIC in low salt conditions (over the bacterial isolates) (bacterial isolates [8]): 1 to 10 µg/mL; MIC in artificial seawater (25‰) (over the bacterial isolates) (bacterial isolates [16]): > 65 µg/mL
